Tests used:
Assay type in all cases: cell-based
EGFR (HCC827 cells) = target: T1, EGFR (HCC827 cells) (Homo sapiens, UniProt P00533, DEL746-750); assay: EGFR degradation HTRF assay, HCC827 cells; details: HCC827, 16h treatment; for Dmax: maximum percentage of degradation
T1 construct: endogenous in cells; host or cells: HCC827
Method in brief: (§1)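 Cells treated 16 h at 37 °C, 5% CO2 in medium with 0.2% DMSO; top final concentration 10 uM, 5-fold dilution, 8 doses. Lysates read by HTRF (665/620 nm); degradation % versus DMSO high control, DC50 from four-parameter fit, Dmax as maximal degradation.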

[1] = target: T2, EGFR L858R/T790M/C797S (BaF3-LTC cells) (Homo sapiens, UniProt P00533, C797S/L858R/T790M); assay: EGFR degradation HTRF assay, BaF3-LTC cells; details: BaF3-LTC, 16h treatment; for Dmax: maximum percentage of degradation, read-out: LTC Dmax (%); for DC50: read-out: LTC DC50
T2 construct: expressed in transfected cells; host or cells: BaF3
T2 sequence (P00533 25-1210 T790M/C797S/L858R): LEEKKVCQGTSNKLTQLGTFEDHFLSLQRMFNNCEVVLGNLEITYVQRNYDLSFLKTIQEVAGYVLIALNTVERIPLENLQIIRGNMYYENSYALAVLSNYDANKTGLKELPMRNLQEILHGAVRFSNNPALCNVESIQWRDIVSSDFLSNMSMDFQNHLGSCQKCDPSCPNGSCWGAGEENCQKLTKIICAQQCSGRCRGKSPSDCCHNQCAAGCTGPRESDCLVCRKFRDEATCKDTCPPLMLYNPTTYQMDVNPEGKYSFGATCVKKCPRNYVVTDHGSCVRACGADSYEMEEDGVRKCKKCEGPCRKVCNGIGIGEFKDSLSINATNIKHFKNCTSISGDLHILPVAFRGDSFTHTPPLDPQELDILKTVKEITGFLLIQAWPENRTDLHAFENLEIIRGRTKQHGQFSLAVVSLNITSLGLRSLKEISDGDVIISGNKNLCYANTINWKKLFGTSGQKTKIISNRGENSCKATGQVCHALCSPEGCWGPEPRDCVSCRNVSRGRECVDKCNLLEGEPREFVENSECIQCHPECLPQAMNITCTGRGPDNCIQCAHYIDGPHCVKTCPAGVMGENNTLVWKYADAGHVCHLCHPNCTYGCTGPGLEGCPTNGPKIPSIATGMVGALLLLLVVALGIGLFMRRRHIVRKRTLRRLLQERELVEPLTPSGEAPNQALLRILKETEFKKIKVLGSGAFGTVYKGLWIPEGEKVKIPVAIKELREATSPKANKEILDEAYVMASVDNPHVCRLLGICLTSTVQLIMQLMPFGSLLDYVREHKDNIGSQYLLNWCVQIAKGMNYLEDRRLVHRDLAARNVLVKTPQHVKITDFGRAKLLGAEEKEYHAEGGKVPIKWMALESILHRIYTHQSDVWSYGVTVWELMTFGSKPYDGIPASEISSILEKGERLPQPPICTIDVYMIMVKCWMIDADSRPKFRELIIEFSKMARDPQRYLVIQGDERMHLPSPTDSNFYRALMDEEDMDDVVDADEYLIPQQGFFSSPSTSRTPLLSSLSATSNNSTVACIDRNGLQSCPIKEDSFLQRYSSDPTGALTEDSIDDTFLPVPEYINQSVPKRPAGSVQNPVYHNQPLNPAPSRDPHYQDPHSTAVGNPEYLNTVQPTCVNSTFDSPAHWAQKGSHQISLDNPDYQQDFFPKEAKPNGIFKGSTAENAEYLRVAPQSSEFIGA
Method in brief: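 EGFR remaining after a 16 h, 37 °C exposure (8 doses, 5-fold steps from 10 uM final, 0.2% DMSO) was quantified by HTRF antibodies in cell lysate. Percent inhibition relative to DMSO control was fitted by four-parameter logistic to give DC50; Dmax denotes maximal degradation.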

[2] = target: T3, EGFR L858R/T790M (H1975-clone #36, homozygous) (Homo sapiens, UniProt P00533, L858R/T790M); assay: EGFR degradation HTRF assay, H1975-clone #36 cells; details: H1975 #36, 16h treatment; for Dmax: NCI-H1975, maximum percentage of degradation
T3 construct: designed to specifically target WT EGFR but preserve the L858R/T790M copy; host or cells: H1975-clone #36
T3 sequence (P00533 25-1210 T790M/L858R): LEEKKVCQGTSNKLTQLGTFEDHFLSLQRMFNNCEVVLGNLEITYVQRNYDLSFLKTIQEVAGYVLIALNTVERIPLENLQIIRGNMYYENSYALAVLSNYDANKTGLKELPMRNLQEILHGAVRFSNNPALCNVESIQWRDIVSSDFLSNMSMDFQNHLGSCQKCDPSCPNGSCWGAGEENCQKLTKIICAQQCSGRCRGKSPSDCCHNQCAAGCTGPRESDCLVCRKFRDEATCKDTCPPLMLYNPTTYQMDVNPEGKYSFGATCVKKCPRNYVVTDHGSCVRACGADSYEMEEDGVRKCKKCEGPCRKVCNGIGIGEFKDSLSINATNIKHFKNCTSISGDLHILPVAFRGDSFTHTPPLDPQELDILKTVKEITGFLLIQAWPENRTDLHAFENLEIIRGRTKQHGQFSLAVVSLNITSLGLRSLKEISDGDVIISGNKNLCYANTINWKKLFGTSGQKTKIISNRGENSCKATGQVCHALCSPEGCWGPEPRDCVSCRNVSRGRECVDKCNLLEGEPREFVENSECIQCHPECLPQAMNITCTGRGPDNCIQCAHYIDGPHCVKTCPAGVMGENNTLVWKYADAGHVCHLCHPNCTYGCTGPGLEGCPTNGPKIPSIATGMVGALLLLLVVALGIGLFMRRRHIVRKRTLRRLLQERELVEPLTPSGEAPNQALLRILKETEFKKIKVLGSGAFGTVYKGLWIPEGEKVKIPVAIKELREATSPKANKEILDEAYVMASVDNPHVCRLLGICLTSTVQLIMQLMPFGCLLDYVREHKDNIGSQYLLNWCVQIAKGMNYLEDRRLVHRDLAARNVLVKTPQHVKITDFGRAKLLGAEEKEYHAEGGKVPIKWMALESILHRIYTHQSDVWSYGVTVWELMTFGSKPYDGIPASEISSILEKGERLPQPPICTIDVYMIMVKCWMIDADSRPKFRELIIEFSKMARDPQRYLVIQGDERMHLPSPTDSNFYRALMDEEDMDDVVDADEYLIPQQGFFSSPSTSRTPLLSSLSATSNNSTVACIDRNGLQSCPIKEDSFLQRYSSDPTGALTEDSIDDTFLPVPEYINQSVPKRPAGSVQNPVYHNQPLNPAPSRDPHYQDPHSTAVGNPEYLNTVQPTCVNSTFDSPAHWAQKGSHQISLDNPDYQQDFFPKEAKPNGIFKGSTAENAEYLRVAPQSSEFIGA
Method in brief: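 Eight-point, 5-fold series starting at 10 uM (0.2% DMSO) applied for 16 h, 37 °C, to a WT-EGFR-knockout H1975 clone carrying only L858R/T790M. Lysates read by HTRF overnight. Degradation percentage relative to DMSO control fitted for DC50, with Dmax as maximum degradation.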

[3] = tested on: EGFR Del19/T790M/C797S (BaF3-DTC cells); assay: EGFR degradation HTRF assay, BaF3-DTC cells; details: 16h treatment; for DTC Dmax (%): maximum percentage of degradation; for DC50: read-out: DTC DC50
Method in brief: as §1

T1 sequence (P00533 with tags, fused parts or gaps DEL746-750): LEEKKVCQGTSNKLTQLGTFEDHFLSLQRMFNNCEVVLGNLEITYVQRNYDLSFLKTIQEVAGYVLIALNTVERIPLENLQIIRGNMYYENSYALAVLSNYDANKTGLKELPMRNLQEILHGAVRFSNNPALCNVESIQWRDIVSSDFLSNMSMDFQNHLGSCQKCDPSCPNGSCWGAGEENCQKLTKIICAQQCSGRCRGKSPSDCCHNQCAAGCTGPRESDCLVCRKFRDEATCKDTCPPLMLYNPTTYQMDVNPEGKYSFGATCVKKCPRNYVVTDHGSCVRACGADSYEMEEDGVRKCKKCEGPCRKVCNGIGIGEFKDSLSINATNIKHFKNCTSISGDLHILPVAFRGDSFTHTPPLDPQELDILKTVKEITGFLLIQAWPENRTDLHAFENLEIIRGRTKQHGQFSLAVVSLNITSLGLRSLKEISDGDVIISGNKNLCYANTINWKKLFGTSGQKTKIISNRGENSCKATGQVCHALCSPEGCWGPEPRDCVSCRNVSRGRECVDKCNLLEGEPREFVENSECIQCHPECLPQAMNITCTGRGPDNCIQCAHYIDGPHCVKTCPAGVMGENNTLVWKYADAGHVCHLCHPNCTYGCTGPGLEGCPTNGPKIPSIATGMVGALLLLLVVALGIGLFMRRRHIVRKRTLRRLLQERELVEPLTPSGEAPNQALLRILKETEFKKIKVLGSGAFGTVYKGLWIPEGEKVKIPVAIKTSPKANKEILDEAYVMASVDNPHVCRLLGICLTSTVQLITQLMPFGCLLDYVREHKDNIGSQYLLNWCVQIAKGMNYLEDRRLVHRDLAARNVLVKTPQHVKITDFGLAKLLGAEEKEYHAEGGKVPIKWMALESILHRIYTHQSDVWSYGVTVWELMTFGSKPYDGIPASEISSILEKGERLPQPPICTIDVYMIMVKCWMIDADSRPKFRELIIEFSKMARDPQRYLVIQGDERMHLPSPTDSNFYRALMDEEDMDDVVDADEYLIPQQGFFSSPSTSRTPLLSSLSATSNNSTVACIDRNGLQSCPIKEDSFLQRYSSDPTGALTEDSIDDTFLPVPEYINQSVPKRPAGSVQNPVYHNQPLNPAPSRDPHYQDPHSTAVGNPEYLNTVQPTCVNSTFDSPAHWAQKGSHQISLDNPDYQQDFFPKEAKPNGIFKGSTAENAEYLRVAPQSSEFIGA

Compound	DC50 (EGFR (HCC827 cells))	Dmax (EGFR (HCC827 cells))	Dmax [1]	DC50 [1]	DC50 [2]	Dmax [2]	DTC Dmax (%) [3]	DC50 [3]
CCc1cc(Nc2ncc(Br)c(Nc3ccc4nccnc4c3P(C)(C)=O)n2)c(OC)cc1N1CCC(N2CCN(CCc3cccc4c3n(C)c(=O)n4C3CCC(=O)NC3=O)CC2)CC1 (centres unmarked) [Example 318, 3-(4-(2-(4-(1-(4-((5-bromo-4-((5-(dimethylphosphoryl)quinoxalin-6-yl)amino)pyrimidin-2-yl)amino)-2-ethyl-5-methoxyphenyl)piperidin-4-yl)piperazin-1-yl)ethyl)-3-methyl-2-oxo-2,3-dihydro-1H-benzo[d]imidazol-1-yl)piperidine-2,6-dione]	0.601 nM	85.2%	93.3%	4.4 nM	2.14 nM	88.8%	91.99%	3.1 nM
CCc1cc(Nc2ncc(Br)c(Nc3ccc4nccnc4c3P(C)(C)=O)n2)c(OC)cc1N1CCC(N2CCN(C(=O)C3CN(c4ccc5c(c4)C(=O)N(C4CCC(=O)NC4=O)C5=O)C3)CC2)CC1 (centres unmarked) [Example 64, 5-(3-(4-(1-(4-((5-bromo-4-((5-(dimethylphosphoryl)quinoxalin-6-yl)amino)pyrimidin-2-yl)amino)-2-ethyl-5-methoxyphenyl)piperidin-4-yl)piperazine-1-carbonyl)azetidin-1-yl)-2-(2,6-dioxopiperidin-3-yl)isoindoline-1,3-dione]	2.06 nM	75.7%	85.4%	1.72 nM	3.12 nM	85.8%	90.07%	4.85 nM
CCc1cc(Nc2ncc(Br)c(Nc3ccc4nccnc4c3P(C)(C)=O)n2)c(OC)cc1N1CCC(N2CCN(C(=O)[C@@H]3CCN(c4cc(F)c(C5CCC(=O)NC5=O)c(F)c4)C3)CC2)CC1 (stereo partly drawn) [Example 255, 3-(4-((R)-3-(4-(1-(4-((5-bromo-4-((5-(dimethylphosphoryl)quinoxalin-6-yl)amino)pyrimidin-2-yl)amino)-2-ethyl-5-methoxyphenyl)piperidin-4-yl)piperazine-1-carbonyl)pyrrolidin-1-yl)-2,6-difluorophenyl)piperidine-2,6-dione]	2.87 nM	78.5%	83.4%	17.3 nM	3.27 nM	90.2%	96.33%	5.62 nM
CCc1cc(Nc2ncc(Br)c(Nc3ccc4c(=O)n(C)ncc4c3P(C)(C)=O)n2)c(OC)cc1N1CCC(N2CCN(CCC3CCN(c4cc(F)c(C5CCC(=O)NC5=O)c(F)c4)CC3)CC2)CC1 (centres unmarked) [Example 270, 3-(4-(4-(2-(4-(1-(4-((5-bromo-4-((5-(dimethylphosphoryl)-2-methyl-1-oxo-1,2-dihydrophthalazin-6-yl)amino)pyrimidin-2-yl)amino)-2-ethyl-5-methoxyphenyl)piperidin-4-yl)piperazin-1-yl)ethyl)piperidin-1-yl)-2,6-difluorophenyl)piperidine-2,6-dione]	5.43 nM	89%	84.2%	24 nM	17.1 nM	84.6%	91.36%	6.97 nM
CCc1cc(Nc2ncc(Br)c(Nc3ccc4nccnc4c3P(C)(C)=O)n2)c(OC)cc1N1CCC(N2CCN(C(=O)CC3CN(c4ccc5c(c4)C(=O)N(C4CCC(=O)NC4=O)C5=O)C3)CC2)CC1 (centres unmarked) [Example 222, 5-(3-(2-(4-(1-(4-((5-bromo-4-((5-(dimethylphosphoryl)quinoxalin-6-yl)amino)pyrimidin-2-yl)amino)-2-ethyl-5-methoxyphenyl)piperidin-4-yl)piperazin-1-yl)-2-oxoethyl)azetidin-1-yl)-2-(2,6-dioxopiperidin-3-yl)isoindoline-1,3-dione]	3.71 nM	78.5%	75.6%	21.3 nM	7.03 nM	69%	83.72%	3.41 nM
CCc1cc(Nc2ncc(Br)c(Nc3ccc4nccnc4c3P(C)(C)=O)n2)c(OC)cc1N1CCC(N2CCN(C(=O)C3CCN(c4ccc5c(c4)C(C)(C)C(=O)N5C4CCC(=O)NC4=O)CC3)CC2)CC1 (centres unmarked) [Example 219, 3-(5-(4-(4-(1-(4-((5-bromo-4-((5-(dimethylphosphoryl)quinoxalin-6-yl)amino)pyrimidin-2-yl)amino)-2-ethyl-5-methoxyphenyl)piperidin-4-yl)piperazine-1-carbonyl)piperidin-1-yl)-3,3-dimethyl-2-oxoindolin-1-yl)piperidine-2,6-dione]	3.21 nM	65.9%	87.5%	4.8 nM	0.65 nM	69.6%	93%	1.94 nM
CCc1cc(Nc2ncc(Br)c(Nc3ccc4nccnc4c3P(C)(C)=O)n2)c(OC)cc1N1CCC(N2CCN(CCc3cc(F)c(C4CCC(=O)NC4=O)c(F)c3)CC2)CC1 (centres unmarked) [Example 11, 3-(4-(2-(4-(1-(4-((5-bromo-4-((5-(dimethylphosphoryl)quinoxalin-6-yl)amino)pyrimidin-2-yl)amino)-2-ethyl-5-methoxyphenyl)piperidin-4-yl)piperazin-1-yl)ethyl)-2,6-difluorophenyl)piperidine-2,6-dione]	2.84 nM	86.4%	91.9%		5.41 nM	97.4%		
CCc1cc(Nc2ncc(Br)c(Nc3ccc4nccnc4c3P(C)(C)=O)n2)c(OC)cc1N1CCC(N2CCN(C3CC(c4ccc5c(c4)C(C)(C)C(=O)N5C4CCC(=O)NC4=O)C3)CC2)CC1 (centres unmarked) [Example 317, 3-(5-(3-(4-(1-(4-((5-bromo-4-((5-(dimethylphosphoryl)quinoxalin-6-yl)amino)pyrimidin-2-yl)amino)-2-ethyl-5-methoxyphenyl)piperidin-4-yl)piperazin-1-yl)cyclobutyl)-3,3-dimethyl-2-oxoindolin-1-yl)piperidine-2,6-dione]	0.779 nM	51.6%	94.1%	9.47 nM	> 80 nM	47%	90.74%	5.17 nM
CCc1cc(Nc2ncc(Br)c(Nc3ccc4nccnc4c3P(C)(C)=O)n2)c(OC)cc1N1CCC(N2CCN(C(=O)C3CCN(c4ccc5c(c4)C(=O)N(C4CCC(=O)NC4=O)C5=O)CC3)CC2)CC1 (centres unmarked) [Example 67, 5-(4-(4-(1-(4-((5-bromo-4-((5-(dimethylphosphoryl)quinoxalin-6-yl)amino)pyrimidin-2-yl)amino)-2-ethyl-5-methoxyphenyl)piperidin-4-yl)piperazine-1-carbonyl)piperidin-1-yl)-2-(2,6-dioxopiperidin-3-yl)isoindoline-1,3-dione]	6.2 nM	76.7%	87.9%	13.3 nM	9.74 nM	74.8%	94.22%	4.71 nM
CCc1cc(Nc2ncc(Br)c(Nc3ccc4nccnc4c3P(C)(C)=O)n2)c(OC)cc1N1CCC(N2CCN(CC3CCN(c4ccc(C5CCC(=O)NC5=O)cc4)C3)CC2)CC1 (centres unmarked) [Example 168, 3-(4-(3-((4-(1-(4-((5-bromo-4-((5-(dimethylphosphoryl)quinoxalin-6-yl)amino)pyrimidin-2-yl)amino)-2-ethyl-5-methoxyphenyl)piperidin-4-yl)piperazin-1-yl)methyl)pyrrolidin-1-yl)phenyl)piperidine-2,6-dione]	4.85 nM	81.2%	86.4%	47 nM	1.61 nM	62.4%	88.5%	22.4 nM

— patent publication US20230265116A1, “DEGRADATION OF (EGFR) BY CONJUGATION OF EGFR INHIBITORS WITH E3 LIGASE LIGAND AND METHODS OF USE” (BEIGENE, LTD., priority 2020, published 2023)
